Test results reported in patent publication US20210308101A1, “METHODS OF TREATING FIBROMYALGIA” (Aptinyx Inc., priority 2019, published 2021).

How the values were obtained:
Format in all cases: in vivo, human
[1] = system: subjects with fibromyalgia; assay: PROMIS Sleep Disturbance short form; conditions: not statistically significant
Source text: As used herein, the “PROMIS Sleep Disturbance” short form is Patient Reported Outcomes Measurement Information System Sleep Disturbance—Short Form. The PROMIS Sleep Disturbance short form version 1.0 8b is an 8-item instrument that assesses sleep disturbance in subjects 18 years and older. All 8 questions are based on a 5-point numerical rating scale/Likert scale ranging from 1 to 5 with different categorical responses. Lower scores represent a better quality of life. The total score was calculated by taking the sum of all 8 questions and ranged from 8 to 40. If at least 4 questions were answered, the total score was imputed if missing responses were present. The total score was multiplied by 8/(number of questions answered) and rounded off to the nearest whole number. Otherwise, the total score was set to missing.
The PROMIS Sleep Disturbance short form assessment was collected and analyzed at visits Screening, Day 1, Week 2, Week 4, Week 6, and Follow-up (Week 7). The observed total score, changes from baseline, and changes from treatment periods were summarized using descriptive statistics. Additionally, the treatment group comparisons were analyzed using the paired t-test and nonparametric Wilcoxon signed-rank test. All PROMIS Sleep Disturbance short form data collected and the calculated total score at each visit were presented in a subject listing.

[2] = system: subjects with fibromyalgia; assay: Numeric Pain Rating Scale (NPRS) daily pain scores
Procedure: As used herein, “NPRS” is Numeric Pain Rating Scale Score. Numeric pain rating scale is a unidimensional segmented numeric version of the visual analog scale. The NPRS score assessing average pain intensity in the past 24 hours are based on an 11-point numerical rating scale/Likert scale ranging from 0 to 10. Where 0 represents no pain and 10 is the worst pain imaginable. Individual one-time scores were collected at the Screening and Day 1 visits on the CRF in order to confirm eligibility status for the subjects. These CRF pain scores were not used in the analysis tables. Instead, the pain scores collected by eRT via phone data collection were used in the analysis tables. eRT collected a variable if the call was completed per the requirements. […] The daily pain scores were summarized using the mean and were calculated for the analysis visits at Baseline and Weeks 1-7. There needed to be at least 4 daily pain scores collected within a post-baseline analysis visit in order to calculate the mean pain score for that visit. Each mean analysis visit score took on values ranging from 0 to 10 and was rounded off by one number after the decimal point. No missing data imputations were used for these individual values or computed means. The actual values/means, changes from baseline, and changes from treatment periods at each analysis visit were summarized using descriptive statistics. Additionally, the treatment group comparisons were analyzed using the paired t-test and nonparametric Wilcoxon signed-rank test. All data collected and derived were presented in subject listings. The pain scores collected by eRT and the CRF were presented in separate subject listings.
The collection methods of the NPRS score assessing worst pain intensity in the past 24 hours were the same as the efficacy data for the NPRS score assessing average pain intensity in the past 24 hours and was analyzed using the same techniques. The worst pain score must be greater than or equal to the average pain score for each assessment. In the event a worst pain score was less than the average pain, both pain scores were removed from calculating the mean weekly analysis visit scores. These collected pain scores were presented in the subject listings with a note that they would be removed from the analysis tables.
The timeline of events in the study are depicted in FIG. 1A. The study included up to a 30 day screening period, to confirm the diagnosis, assess eligibility, and complete the baseline magnetic resonance imaging (MRI). This was a single-blind, exploratory, placebo-controlled pilot study in which eligible subjects received 2 weeks of daily oral (QD) placebo, 2 weeks of NYX-2925 20 mg PO daily (low dose), 2 weeks of NYX-2925 200 mg PO daily (high dose), followed by a 1 week follow-up period. An MRI was conducted during the screening period, during the last week of the placebo period, during the last week of the NYX-2925 20 mg administration period, and during the last week of the NYX-2925 200 mg administration period. Study visits occurred during screening, then at day one and weeks 1, 2, 3, 4, 5, 6, and 7. An optional MRI was completed at the end of the follow-up period for consenting subjects. Study participants and study staff responsible for interpreting MRI results were blinded to the study drug administration.

[3] = system: subjects with fibromyalgia; assay: QST: cuff algometry
Procedure: Large volume, deep tissue pressure sensitivity was assessed by cuff algometry. Calibrated cuff pain stimuli were delivered to the gastrocnemius area of the lower leg using a validated MRI-compatible cuff pain device. This system included an air compressor, computerized pressure controller, and a 13.5 cm×82.5 cm Velcro-adjusted pressure cuff (similar to a blood pressure cuff). Subjects first received an ascending series of cuff pressures, starting at 20 mmHg and increasing in 20-mmHg steps (10- to 14-second duration pressures, 20-second interstimulus interval) to tolerance or a maximum of 400 mmHg. Each pressure was rated after deflation on a 0 to 100 NRS. These pain ratings were used to interpolate a series of 9 tolerable cuff pressures that were delivered in pseudo-randomized order and rated individually. […] Curves were constructed for each participant and used for analysis of drug and placebo effects. An abbreviated form of cuff algometry was performed during fMRI as an evoked pain stimulus.
QST data were analyzed at the University of Michigan CPFRC. Dependent variables were the MAST derived outcomes (Pain50, pressure pain threshold, pain tolerance, and pain ratings at 2 kg/cm2), algometry-derived pressure pain thresholds (mean of three trials) at each anatomical site, average cuff intensity ratings (mean of ratings at all stimulus levels during the ascending or random sequences), and average visual task unpleasantness and brightness intensity ratings (mean of ratings at all stimulus levels). Practice data were not analyzed. Overall pain intensity and unpleasantness NRS scores as well as stimulus response curves for each test were assessed during post hoc analyses. Data points displaying measurement artefacts, including device malfunction or user error, were set to missing. Single subject QST variables were analyzed using paired t-tests and/or nonparametric Wilcoxon signed-rank tests in SPSS or R.

[4] = week six, after four weeks of NYX-2925, scale 0 to 10, n=19

Structure (SMILES): CC(C)C(=O)N1CCC[C@]12CN([C@H](C(N)=O)[C@@H](C)O)C2=O [NYX-2925, (2S, 3R)-3-hydroxy-2-((R)-5-isobutyryl-1-oxo-2,5-diazaspiro[3.4]octan-2-yl)butanamide]
- PROMIS Sleep Disturbance short form score, mean change ([1]; Week 2 (placebo) to Week 4 (NYX-2925 20 mg)): −0.9
- PROMIS Sleep Disturbance short form score, mean change ([1]; Week 2 (placebo) to Week 6 (NYX-2925 200 mg)): −1.6
- average daily pain, change from baseline ([2]; NYX-2925 20 mg): reductions from baseline
- worse daily pain, change from baseline ([2]; NYX-2925 20 mg): reductions from baseline
- NPRS average pain score, mean change ([2]; Week 2 (placebo) to Week 4 (NYX-2925 20 mg PO QD)): −0.10
- NPRS average pain score, mean change ([2]; Week 2 (placebo) to Week 6 (NYX-2925 200 mg PO QD), p=0.0072): −0.66
- NPRS worst pain score, mean change ([2]; Week 2 (placebo) to Week 6 (NYX-2925 200 mg), p=0.0360): −0.61
- Average daily pain score, reduction from baseline [2, 4]: 1.1 point
- Worst daily pain score, reduction from baseline [2, 4]: 1.0 point
- mean pain intensity rating of the Cuff Random paradigm ([3]; NYX-2925 20 mg relative to baseline, p=0.073): marginally reduced
- Cuff Random Pain50 threshold ([3]; NYX-2925 20 mg, baseline 151.89±110.64, p=0.031): 193.00±128.16 mmHg
- Cuff Random Pain50 threshold ([3]; NYX-2925 200 mg, baseline 157.70±110.78, p=0.038): 209.80±132.51 mmHg
- cuff algometry procedure overall unpleasantness rating ([3]; Week 7 follow-up, after cessation of NYX-2925, p=0.040 vs 200 mg): 30.00±22.82
- cuff algometry procedure overall unpleasantness rating ([3]; treatment with NYX-2925 200 mg (Week 6)): 25.00±19.15
